System: dendritic cells
Assay: Inhibition of E. coli LPS-induced activation of dendritic cells (CD40, CD80, CD86, I-Ab expression)
Type: cell-based, mouse
Conditions: 100 ng/ml E. coli LPS; CD11c(+)/7AAD(−) dendritic cells
Procedure: In order to assay the effect of sodium glycocholate on the activation procedure of antigen presenting cells, which is induced by E. coli LPS, cells were separated from the bone marrow of recombination activating gene 2 (Rag2) deficient mouse. The separated cells were plated at 2×10^5 cells/well in a 96-well plate and then treated with 1.5 ng/ml of granulocyt-macrophage colony-stimulating factor (GM-CSF) and 0.75 ng/ml of interleukin-4 followed by the differentiation of the cells into dentritic cells through 6-day incubation.
The dendritic cells were well mixed with sodium glycocholate and LPS. The mixtures were stimulated for 18 hours at 37° C., and stained with anti-CD40-FITC, anti-CD80-FITC, anti-I-Ab-PE, anti-CD86-PE, 7AAD and anti-CD11c-APC, then the cells were assayed via a flow cytometer. Each group was treated and assayed at least twice, and the results were statistically analyzed through t-test. The results were p<0.05 compared with the experimental groups treated by only LPS.
As shown FIGS. 9A-9B to 11A-11B, in order to assay only living dedritic cells, CD11c(+)/7AAD(−) cells were selected and then the expressions of dendritic cell costimulatory molecules and I-Ab were assayed.

C[C@H](CCC(=O)NCC(=O)[O-])[C@H]1CC[C@H]2[C@@H]3[C@H](O)C[C@@H]4C[C@H](O)CC[C@]4(C)[C@H]3C[C@H](O)[C@]12C.[Na+] [sodium glycocholate]
increased expression of CD40, CD80, CD86 and I-Ab: inhibited depending on the concentration
